Source: a melting point compilation (Tetko et al.)

Structure (SMILES) | melting point [°C]
Clc1ccc2cc(Cl)ccc2c1 | 140
CC(=O)N(Nc1ccccc1)c1ccc(-c2ccc(/N=N/c3ccccc3)cc2)cc1 | 244
CC(C)(C)CC(C)(C)Nc1nc(N2CCOCC2)nc(N2CCOCC2)n1 | 159
CC(=O)c1ccc(O)cc1C | 128
Cn1c(/C(C#N)=N/Nc2c(Br)cc(Br)cc2Br)nc2ccccc21 | 180
CSC(=NOC(=O)N(C)C=C1C=NC=N1)C(=O)N(C)C | 252
CC(=O)Nc1ccc(-c2ccc(/N=N/c3ccccc3)cc2)cc1 | 236 to 237
NC(=O)c1sc(Nc2ccc(Cl)cc2)nc1N | 220 to 222
CN1CCC(CCCC2CCN(C)CC2)CC1 | 13.7
Nc1ccc(C(=O)c2ccccc2)cc1[N+](=O)[O-] | 140 to 143
CC(C)(C(=O)O)c1ccc(Cl)cc1 | 127
Cc1ccc(NN=C2C(=O)OC(C)(C)OC2=O)cc1 | 130
O=C(O)c1cn(C2CC2)c2cc(Cl)c(F)cc2c1=O | 239 to 244
Nc1cc(F)c(F)c(F)c1F | 28
CC(=O)C(C#N)(CC(=O)c1ccccc1)c1ccccc1 (stereo not drawn) | 94
C=C(C)C1CC=C(C)CC1 (stereo not drawn) | -74.3
Clc1nc(-c2ccccc2)nc2ccccc12 | 123 to 128
CCCCn1c2ccccc2c2ccccc21 | 58
COc1ccc2c(=O)c(=O)c2c1 | 102
O=C(Nc1ccccc1)OC1C=CC=CC(OC(=O)Nc2ccccc2)C1 (stereo not drawn) | 181
O=C(CCCl)NCc1ccccc1 | 94
c1csc(SSc2cccs2)c1 | 55
O=C(CCc1ccc(O)cc1)ON1C(=O)CCC1=O | 133 to 135
CCOC(=O)C=Cc1c[nH]c2ccccc12 | 120
C=CC=CC(=O)O | 79
NC(=S)Nc1ccccc1[N+](=O)[O-] | 136 to 137

Structure (SMILES) | melting point [°C]
Cc1ccc2cc3c(cc2n1)CCC(C)N3C(=O)c1ccccc1 (stereo not drawn) | 155
COC1OC(CNC(=O)N(CCCl)N=O)C(O)C(O)C1O (stereo not drawn) | 111
O=C1C=C(Cl)C(=O)O1 | 33
CC(C(=O)O)N1C(=O)c2ccccc2C1=O (stereo not drawn) | 163
CCCCCCCCCCCC#N | 4
Cc1cc(C)nc(NN)n1 | 166 to 167
NNC(=O)c1snnc1-c1ccccc1 | 129 to 130
O=C(O)Cn1c(=O)sc2cccc(Cl)c21 | 193
Nc1c(C(=O)O)ccc2c1C(=O)c1ccccc1C2=O | 296
CCOC(=O)c1nnc(N)o1 | 199 to 201
C1CCCCCC2OC2CCCC1 (stereo not drawn) | -7
CC(=O)Oc1c(C)cc(OCC(O)CNC(C)C)c(C)c1C (stereo not drawn) | 106
O=C(O)CN(CCO)CCO | 190 to 192
CC(=O)NC(CCC(=O)O)C(=O)O (stereo not drawn) | 199
COC(=O)c1sccc1-n1cccc1 | 61
O=c1[nH]ncc(Cl)c1Cl | 202
C[Si]1(C)O[Si](C)(C)O[Si](C)(C)O[Si](C)(C)O[Si](C)(C)O[Si](C)(C)O[Si](C)(C)O1 | -26
CC(C)N(C(=O)COc1nnc(C(F)(F)F)s1)c1ccc(F)cc1 | 78
Nc1cc(Cl)c(S(N)(=O)=O)cc1S(N)(=O)=O | 254
Cc1cc2ncn(C3OC(CO)C(O)C3O)c2cc1C (stereo not drawn) | 198
OCC1(O)COC(O)(CO)CO1 (stereo not drawn) | 79
NC(CCC(=O)NC(CS)C(=O)NCC(=O)O)C(=O)O (stereo not drawn) | 195
CC(=O)c1cc(Br)c(O)c(Br)c1 | 174 to 183
NC(=S)Nc1ccc(F)cc1F | 163 to 168
Cc1ccc2c(c1Cc1ccccc1)CCC1C2CCC2CCCCC21C (stereo not drawn) | 95
CC(=O)OCC1OC(c2nn[nH]n2)C(N2C(=O)c3ccccc3C2=O)C(OC(C)=O)C1OC(C)=O (stereo not drawn) | 98

Structure (SMILES) | melting point [°C]
c1ccc(CC(c2ccccc2)c2ccccc2)cc1 | 52
OCC(F)(F)C(F)(F)C(F)(F)C(F)(F)C(F)(F)C(F)(F)C(F)(F)C(F)F | 58 to 60
O=[N+]([O-])c1ccc(NN=C2c3ccccc3C2Cl)c([N+](=O)[O-])c1 (stereo not drawn) | 228
COc1ccc(C(=O)c2noc(-c3ccc(Br)cc3)c2S(=O)(=O)c2ccccc2)cc1 | 150
O=C(O)c1ccc(N2CCCC2)cc1 | 230
N#Cc1c(C(F)(F)F)cc(Cl)nc1Cl | 38 to 40
CCCCCCCSCCCCCCC | 70
CC(OCC(=O)c1ccccc1)=C(C#N)c1ccccc1 | 111
c1cnc2cccnc2c1 | 75
CCSCC(=O)O | -8.5
CC1=NCCN1 | 107
Cc1ccc(N(C)C(=S)Cl)cc1 | 56 to 59
Oc1ccc(F)cc1Cl | 23
CC1(C)CCC2(C(=O)O)CCC3(C)C(=CCC4C5(C)CCC(O)C(C)(C=O)C5CCC43C)C2C1 (stereo not drawn) | 275
O=C1OC(c2ccccc2)=NC1=Cc1ccccc1 | 167
CC(Cc1cc(=O)c2c3c(c4ccccc4c2o1)OC1CC(=O)OC31)O[Si](C)(C)C(C)(C)C (stereo not drawn) | 188
COc1ccc2c(CBr)cc(=O)oc2c1 | 212 to 217
CN1Cc2c(ccc3c2OCO3)C2C(O)Cc3cc4c(cc3C21)OCO4 (stereo not drawn) | 136
CC(=O)OCC(OC(C)=O)C(OC1OC(COC(C)=O)C(OC(C)=O)C(OC(C)=O)C1OC(C)=O)C(OC(C)=O)C(C#N)OC(C)=O (stereo not drawn) | 132
O=C(O)C(O)c1ccc(C(F)(F)F)cc1 (stereo not drawn) | 130 to 134
O=C(Cl)OCc1ccc([N+](=O)[O-])cc1 | 33
O=C(O)c1ccc(Cl)cc1Cl | 164
Cc1c(C#N)cccc1C#N | 136
O=C(Cc1ccc(/N=C/c2ccccc2)cc1)c1ccc(/N=C/c2ccccc2)cc1 | 181
COc1ccc(N2C(=O)C3ON=C(C(=O)c4ccco4)C3C2=O)cc1 (stereo not drawn) | 137
CC1=NN(c2ccccc2)C(=O)C1C(Br)C1(Br)C(=O)N(c2ccccc2)N=C1C (stereo not drawn) | 307 to 308

Structure (SMILES) | melting point [°C]
O=c1c(O)c(-c2ccc(O)cc2O)oc2cc(O)cc(O)c12 | 304
O=C1c2ccc([N+](=O)[O-])cc2C(=O)N1CCCBr | 104 to 107
CC(=NO)C(=O)c1ccccc1 | 114
CC(C)(c1cc(Br)c(OCCO)c(Br)c1)c1cc(Br)c(OCCO)c(Br)c1 | 108 to 114
COc1ccccc1C1Nn2c(COc3ccccc3)nnc2S1 (stereo not drawn) | 126
NCc1ccc(S(N)(=O)=O)cc1 | 151
CC(=O)c1ccc(C)c(F)c1 | 33
CC1CC2C3CCC4=CC(=O)C=CC4(C)C3(F)C(O)CC2(C)C1C(=O)CO (stereo not drawn) | 217
Clc1cc(Cl)c2c(c1Cl)Oc1ccccc1O2 | 128
NC(=O)C(=O)O | 210
COc1ccc(-c2n[nH]cc2C=O)cc1 | 160 to 161
O=C1C=C2C=C[C@@H]3C[C@@]2(O1)[C@H]1CCCCN31 | 142
COc1ccc(OC)c(C#N)c1 | 82
O=C(O)CCCCCl | 18
Cc1nn(C)c(NC(=O)CCl)c1Br | 151 to 153
CC1C2Cc3ccc(O)cc3C1(C)CCN2CC1CC1 (stereo not drawn) | 202
Fc1cccc(F)c1CCl | 34
CC12CCC3C(CCC4CC(O)CCC43C)C1CCC2O (stereo not drawn) | 167
O=Cc1cn2ccsc2n1 | 71
CCCCCCOc1ccc(N)cc1 | 44
O=C(O)CCn1ccnc1 | 147 to 149
C[Si](C)(C)OC1(C#N)c2ccccc2CCc2ccccc2C1(C#N)O[Si](C)(C)C (stereo not drawn) | 88
CC(C)SC(C)C | -78.1
N#CCN(CC#N)CC#N | 126
O=C(CS(=O)C(c1ccccc1)c1ccccc1)NO (stereo not drawn) | 159
Cc1ccc(N=c2sccn2C)c(C)c1 | 44

Structure (SMILES) | melting point [°C]
COC(=O)c1ccccc1OC1OC(COC2OCC(O)C(O)C2O)C(O)C(O)C1O (stereo not drawn) | 180
Cc1cc(C(=O)Cl)ccc1Br | 26
O=[N+]([O-])c1cc(Cl)cnc1Cl | 38 to 42
CCC(C(=O)O)c1ccc(N2Cc3ccccc3C2=O)cc1 (stereo not drawn) | 183
S=C1NCCc2ccccc21 | 97 to 99
CC(=O)NC1C(O)CC(O)(C(=O)O)OC1C(O)C(O)CO (stereo not drawn) | 184 to 186
COc1cc(O)c(C(=O)c2ccccc2)cc1S(=O)(=O)O | 170
O=C(O)c1snnc1-c1ccccc1 | 144 to 145
Cc1onc(-c2c(Cl)cccc2Cl)c1C(N)=O | 166 to 168
CC(=O)Oc1cc(C(C)C)c(OCCN(C)C)cc1C | 144
C[C@H]1NC(=O)O[C@H]1c1ccccc1 | 118 to 121
CC(C)(C)OC(=O)NC(Cc1ccncc1)C(=O)O (stereo not drawn) | 225 to 229
N#Cc1cnc(Br)nc1N | 250
Cc1ccc(C2(C(=O)O)CCCCC2)cc1 | 166 to 170
Nc1ccc(-c2ccc(N)c(N)c2)cc1N | 176
Cc1cc2c(ccc3nonc32)nn1 | 167 to 169
c1ccc(N2CCNCC2)cc1 | 18.8
Cc1ccc(S(=O)(=O)OC2CCCCC2)cc1 | 46
Nc1ccc(S(=O)(=O)Nc2ccc(Cl)nn2)cc1 | 187
CCCCCc1ccc(O)cc1O | 72.5
c1cc2c(ccc3nonc32)nn1 | 139 to 141
COc1ccc(-c2cc3ccccc3cn2)cc1 | 98.5 to 100
O=C(NCCCC[C@H](NC(=O)OCc1ccccc1)C(=O)O)OCC1c2ccccc2-c2ccccc21 | 101 to 105
c1ccc(C2CC2)cc1 | -31
